US9301965B2, “Method of treating ovarian cancer using a PKC inhibitor” (University of South Florida, priority 2014, dated 2016)
Where “and” joins values, the source holds several entries; their conditions need not be identical. Equal values may be shown once.

Assays:
PKC-ι [1] = biological target: T1, PKC-ι (Homo sapiens, UniProt P41743); conditions: cited from earlier work
T1 sequence (P41743 1-596): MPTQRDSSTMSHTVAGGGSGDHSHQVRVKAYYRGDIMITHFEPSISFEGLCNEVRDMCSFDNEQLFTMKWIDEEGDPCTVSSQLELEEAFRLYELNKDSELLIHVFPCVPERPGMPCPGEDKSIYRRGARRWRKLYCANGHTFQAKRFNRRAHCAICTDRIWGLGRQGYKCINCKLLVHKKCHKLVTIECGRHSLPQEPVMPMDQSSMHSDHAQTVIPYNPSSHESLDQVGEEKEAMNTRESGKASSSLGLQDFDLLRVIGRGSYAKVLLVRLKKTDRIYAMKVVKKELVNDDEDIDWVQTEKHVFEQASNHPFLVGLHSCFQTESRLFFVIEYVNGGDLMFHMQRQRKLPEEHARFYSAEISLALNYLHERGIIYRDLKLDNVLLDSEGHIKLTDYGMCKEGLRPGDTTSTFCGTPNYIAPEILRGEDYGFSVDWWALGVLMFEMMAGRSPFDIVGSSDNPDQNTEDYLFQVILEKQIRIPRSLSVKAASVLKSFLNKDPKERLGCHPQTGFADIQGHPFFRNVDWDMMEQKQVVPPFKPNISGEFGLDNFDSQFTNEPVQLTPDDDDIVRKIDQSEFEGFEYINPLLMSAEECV

PKC-ζ = biological target: T2, PKC-ζ (Homo sapiens, UniProt Q05513); conditions: cited from earlier work
T2 sequence (Q05513 1-592): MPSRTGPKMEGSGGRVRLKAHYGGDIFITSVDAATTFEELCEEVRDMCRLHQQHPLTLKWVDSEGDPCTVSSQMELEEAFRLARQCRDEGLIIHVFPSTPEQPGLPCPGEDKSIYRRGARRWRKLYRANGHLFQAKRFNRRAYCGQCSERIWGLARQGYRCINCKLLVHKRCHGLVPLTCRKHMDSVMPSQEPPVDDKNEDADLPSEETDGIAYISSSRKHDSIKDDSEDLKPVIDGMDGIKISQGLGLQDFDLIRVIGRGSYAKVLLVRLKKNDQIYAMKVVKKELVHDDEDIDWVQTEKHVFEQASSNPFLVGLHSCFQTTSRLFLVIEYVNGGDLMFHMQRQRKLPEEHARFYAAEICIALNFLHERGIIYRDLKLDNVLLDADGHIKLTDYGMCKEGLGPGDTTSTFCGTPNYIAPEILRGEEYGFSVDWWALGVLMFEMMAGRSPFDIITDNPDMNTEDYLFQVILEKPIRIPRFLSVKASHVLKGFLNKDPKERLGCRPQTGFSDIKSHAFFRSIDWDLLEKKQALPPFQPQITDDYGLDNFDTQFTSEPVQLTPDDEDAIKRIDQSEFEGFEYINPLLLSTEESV

HEY ovarian cancer cells [2] = assay: HEY cell proliferation, Trypan blue exclusion assay; format: cell-based, human
Method: HEY human ovarian carcinoma cells were obtained from Dr. Meera Nanjundan's laboratory at the University of South Florida. The cells were grown as a monolayer in a T25 tissue culture flask with 5 mL of growth medium and maintained in a 37° C. incubator with 5% CO2. The RPMI1640 growth medium was obtained from and American Type Culture Collection (ATCC) and Life Technologies (Carlsbad, Calif.). The medium was supplemented with 10% fetal bovine serum (FBS) and a mix of the antibiotics Penicillin (10,000 IU) and Streptomycin (10,000 μg/ml) in a 100× concentration which was purchased from Corning.
HEY cells were cultured in a T25 cell culture flask. 13,000 cells were seeded into each well in a 6-well culture plate. ACPD was weighed and dissolved in water to create a 100 mM stock solution. From this solution, serial dilutions were done to create a 1 mM stock solution which was then used for treatment. In order to assess the effect of ACPD on cell viability, three wells were treated with 2 μM ACPD while the other three wells were left untreated as controls. The treatment period was 72 hours with the growth medium being changed every 24 hours. The cells were also washed with DPBS every time the growth medium was changed. Cell viability was determined at 24, 48 and 72 hours using a Trypan blue exclusion assay where 30 μL of the cell suspension was added to 30 μL of Trypan blue. The number of unstained cells was counted using a hematocytometer. The same procedures were used for ICA-1.
The experiments were performed as per the protocol described by Patel et al. (2008), herein incorporated by reference. Briefly, cells were cultured in T75 flasks in monolayers. For treatment, 40,000 cells were seeded into T75 flasks and treated for 72 hours with ICA-1 and ACPD. The proliferation was measured each day by a Trypan Blue exclusion assay which involved staining the cells with Trypan Blue and counting them under a microscope using a hemocytometer.

PKC-β = PKC-β (Homo sapiens, UniProt P05771); conditions: cited from earlier work
PKC-β, sequence (P05771 whole entry, species assumed): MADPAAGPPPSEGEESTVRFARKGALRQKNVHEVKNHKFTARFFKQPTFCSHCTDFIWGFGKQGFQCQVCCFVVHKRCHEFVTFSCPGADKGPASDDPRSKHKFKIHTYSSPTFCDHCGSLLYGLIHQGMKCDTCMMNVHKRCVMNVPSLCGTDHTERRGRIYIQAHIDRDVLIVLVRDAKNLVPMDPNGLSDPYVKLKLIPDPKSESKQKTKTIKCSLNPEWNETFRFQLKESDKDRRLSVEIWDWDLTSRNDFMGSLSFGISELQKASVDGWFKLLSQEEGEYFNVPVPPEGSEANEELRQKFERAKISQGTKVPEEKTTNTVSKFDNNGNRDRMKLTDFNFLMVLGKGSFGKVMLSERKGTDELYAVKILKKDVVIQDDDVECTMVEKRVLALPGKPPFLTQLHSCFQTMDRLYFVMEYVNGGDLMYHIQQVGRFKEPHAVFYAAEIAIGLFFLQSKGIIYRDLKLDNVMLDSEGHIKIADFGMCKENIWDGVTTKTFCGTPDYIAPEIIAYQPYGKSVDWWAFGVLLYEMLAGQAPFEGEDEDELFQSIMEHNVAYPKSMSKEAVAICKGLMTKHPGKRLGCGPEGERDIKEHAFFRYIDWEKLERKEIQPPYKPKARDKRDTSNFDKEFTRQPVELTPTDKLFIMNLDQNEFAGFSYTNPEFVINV

PKC-α = PKC-α (Homo sapiens, UniProt P17252); conditions: cited from earlier work
PKC-ε = biological target: T3, PKC-ε (Homo sapiens, UniProt Q02156); conditions: cited from earlier work
T3 sequence (Q02156 1-737): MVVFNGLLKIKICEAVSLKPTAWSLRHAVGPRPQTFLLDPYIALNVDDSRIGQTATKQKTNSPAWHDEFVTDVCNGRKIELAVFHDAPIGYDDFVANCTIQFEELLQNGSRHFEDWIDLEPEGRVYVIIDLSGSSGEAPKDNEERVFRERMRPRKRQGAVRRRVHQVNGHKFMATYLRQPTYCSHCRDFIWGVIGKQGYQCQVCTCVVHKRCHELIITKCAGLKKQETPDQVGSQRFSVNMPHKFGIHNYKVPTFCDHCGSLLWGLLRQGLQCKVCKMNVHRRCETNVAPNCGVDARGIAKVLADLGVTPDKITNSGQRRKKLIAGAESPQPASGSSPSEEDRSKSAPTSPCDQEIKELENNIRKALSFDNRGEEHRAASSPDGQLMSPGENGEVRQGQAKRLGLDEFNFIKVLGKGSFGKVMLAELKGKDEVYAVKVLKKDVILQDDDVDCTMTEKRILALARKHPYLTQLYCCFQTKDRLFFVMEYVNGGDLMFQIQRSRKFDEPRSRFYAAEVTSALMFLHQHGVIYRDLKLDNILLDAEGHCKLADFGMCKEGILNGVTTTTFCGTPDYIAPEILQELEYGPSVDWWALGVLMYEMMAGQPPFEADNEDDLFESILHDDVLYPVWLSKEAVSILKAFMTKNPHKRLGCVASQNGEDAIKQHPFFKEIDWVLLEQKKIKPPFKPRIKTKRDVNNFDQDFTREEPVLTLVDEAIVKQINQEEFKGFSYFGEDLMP

PKC-ι [3] = biological target: T1, PKC-ι; conditions: cited from earlier work; remark: listed apart in the source
PKC-δ = PKC-δ (Homo sapiens, UniProt Q05655); conditions: cited from earlier work
PKC-δ, sequence (Q05655 whole entry): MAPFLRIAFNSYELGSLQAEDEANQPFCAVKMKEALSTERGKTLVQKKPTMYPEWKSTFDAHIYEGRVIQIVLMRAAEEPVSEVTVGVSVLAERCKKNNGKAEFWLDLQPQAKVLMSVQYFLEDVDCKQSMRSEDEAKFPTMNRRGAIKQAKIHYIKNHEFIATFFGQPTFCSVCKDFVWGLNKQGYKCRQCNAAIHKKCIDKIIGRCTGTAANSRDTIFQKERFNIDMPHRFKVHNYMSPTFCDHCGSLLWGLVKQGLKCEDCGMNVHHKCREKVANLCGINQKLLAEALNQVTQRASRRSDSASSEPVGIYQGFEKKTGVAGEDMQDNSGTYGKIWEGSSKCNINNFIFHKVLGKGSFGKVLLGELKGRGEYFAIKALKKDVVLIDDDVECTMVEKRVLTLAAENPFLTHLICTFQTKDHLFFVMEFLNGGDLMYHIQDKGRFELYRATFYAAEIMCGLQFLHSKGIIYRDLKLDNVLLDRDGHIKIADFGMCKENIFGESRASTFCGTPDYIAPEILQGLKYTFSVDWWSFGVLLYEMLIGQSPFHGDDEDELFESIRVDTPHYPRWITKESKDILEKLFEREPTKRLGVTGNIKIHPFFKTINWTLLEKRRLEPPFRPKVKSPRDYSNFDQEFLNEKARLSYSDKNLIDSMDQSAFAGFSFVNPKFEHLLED

HEY ovarian cancer cells [4] = assay: Total RNA concentration of HEY cells (Rneasy Mini Kit, NanoDrop1000); format: cell-based, human; conditions: for reduction of total RNA: 2 μM
Description: RNA was isolated from the treated and untreated cells using the Rneasy Mini Kit and protocol. The total RNA concentration was estimated using the NanoDrop1000 spectrophotometer.

| Compound | binding to PKC-ι (PKC-ι [1]) | inhibition of PKC-ζ (PKC-ζ) | reduction of cell proliferation (HEY ovarian cancer cells [2]; 800 nM, 72 hour treatment) [%] | reduction of cell proliferation (HEY ovarian cancer cells [2]; 1.8 μM, 72 hour treatment) [%] | reduction of cell proliferation (HEY ovarian cancer cells [2]; 2 μM, 24 hours, compared to controls) | reduction of cell proliferation (HEY ovarian cancer cells [2]; 2 μM, 48 hours) | effectiveness in inhibiting cell proliferation relative to ICA-1 (HEY ovarian cancer cells [2]; HEY ovarian cancer cells) | inhibition of PKC-β (PKC-β) | inhibition of PKC-α (PKC-α) | inhibition of PKC-ε (PKC-ε) | inhibition of PKC-ι (PKC-ι [3]) | inhibition of PKC-δ (PKC-δ) | reduction of total RNA concentration (HEY ovarian cancer cells [4]; 1.8 μM, 72 hour treatment) [%] | reduction of total RNA (HEY ovarian cancer cells [4]; 24 hours) | reduction of total RNA (HEY ovarian cancer cells [4]; 48 hours) | reduction of total RNA (HEY ovarian cancer cells [4]; 72 hours) |
| --- | --- | --- | --- | --- | --- | --- | --- | --- | --- | --- | --- | --- | --- | --- | --- | --- |
| OC[C@H]1O[C@H]([S][Au])[C@H](O)[C@@H](O)[C@@H]1O [aurothioglucose] | low micromolar range |  |  |  |  |  |  |  |  |  |  |  |  |  |  |  |
| O=C([O-])CC([S][Au])C(=O)[O-] (centres unmarked) [Sodium aurothiomalate] | low micromolar range |  |  |  |  |  |  |  |  |  |  |  |  |  |  |  |
| CC(=O)C1=C(O)CCC1=O [ACPD, 2-acetyl-1,3-cyclopentanedione] |  | inhibits both PKC-ζ and PKC-ι | 16 | 28 | 82% and 81.75% | 60.5% and 60% | over five times more effective than ICA-1 | not PKC-α, PKC-β, PKC-δ, or PKC-ε | not PKC-α, PKC-β, PKC-δ, or PKC-ε | not PKC-α, PKC-β, PKC-δ, or PKC-ε | inhibits both PKC-ζ and PKC-ι | not PKC-α, PKC-β, PKC-δ, or PKC-ε | 38 | 97% and 97.4% | 52.4% and 52% | 34.3% and 34% |
